Experimental findings from patent publication US20230284616A1, “FUNGICIDAL COMPOSITIONS” (SYNGENTA CROP PROTECTION AG, priority 2020, published 2023) are described below.

The inhibition is the change of the read-out against control, counted positive when it falls.

For one assay, the system named is Alternaria solani. The assay can be described thus: Liquid culture test in well plates, Alternaria solani (early blight of tomato/potato), Example 1-2. Format: cell-based. How it is done: (§1) Mycelia fragments or conidia suspensions of a fungus, prepared either freshly from liquid cultures of the fungus or from cryogenic storage, are directly mixed into nutrient broth. DMSO solutions of the test compound (max. 10 mg/mL) is diluted with 0.025% Tween20 by factor 50 and 10 µL of this solution is pipetted into a microtiter plate (96-well format). […] The test plates are incubated in the dark at 24° C. and 96% relative humidity (rh). The inhibition of fungal growth is determined photometrically and visually after 3 - 7 days, depending on the pathosystem, and percent antifungal activity relative to the untreated check is calculated.
Conidia of the fungus from cryogenic storage were directly mixed into nutrient broth (PDB potato dextrose broth). After placing a DMSO solution of the test compositions into a microtiter plate (96-well format) the nutrient broth containing the fungal spores was added.

A further assay concerns Botrytis cinerea. The assay can be described thus: Liquid culture test in well plates, Botrytis cinerea (gray mould), Example 1-1. The format is cell-based. The note with it: Cyprodinil 0.005 ppm alone, growth inhibition, photometric, 72 hours, read-out: (B) inhibition (%). The method, then:
as §1
Conidia of the fungus from cryogenic storage were directly mixed into nutrient broth (PDB potato dextrose broth). After placing a DMSO solution of the test compositions into a microtiter plate (96-well format), the nutrient broth containing the fungal spores was added.

Setting [1] is: 48 h, read-out: (A) inhibition (%).

Each structure is given as a SMILES string. Like-named read-outs stand apart in the source and are kept apart here. Numbered stars: 1 amine (or outer) side, 2 acyl side, 3 side chain; on linkers, the order of the positions; unused ones are H or OH. Square brackets hold non-standard residues; d marks the D form. Peptide text beside a SMILES is read from it. ξ: configuration not given here. ξNMeVal(3-OH) = CNC(C(=O)O)C(C)(C)O; NMeF = CN[CH](Cc1ccccc1)C(=O)O; X1 = CCC(C)C(O[*:1])C(=O)[*:2]; NMeV = CN[CH](C(=O)O)C(C)C

With `CCC(C)C1NC(=O)C2CCCN2C(=O)C(Cc2ccccc2)N(C)C(=O)C(Cc2ccccc2)NC(=O)C(C(C)C)N(C)C(=O)C(C(C)CC)OC(=O)C(C(C)(C)O)N(C)C(=O)C(CC(C)C)NC(=O)C(C(C)C)N(C)C1=O` (centres unmarked) [Aureobasidin A] (cyclo([ξNMeVal(3-OH)][X1][NMeV]F[NMeF]PI[NMeV]L); configuration not given here), in the assay on Alternaria solani (setting [1]), the inhibition at 0.01 ppm was 24%, the inhibition at 0.02 ppm was found to be 31% and the inhibition at 0.04 ppm was 43%.
For the compound `Cc1cc(C2CC2)nc(Nc2ccccc2)n1` [Cyprodinil, cyprodinil, reference compound], in the assay on Alternaria solani (Cyprodinil 0.04 ppm alone, 48 hours, read-out: (B) inhibition (%)), the inhibition at 0.04 ppm came to 35%. Moreover, the inhibition at 0.005 ppm in the assay on Botrytis cinerea stood at 34%.
